Test results published in article PMC2827657 (Biochemistry, 2010).

Tests used:
[1] = target: NSMOA (Pseudomonas putida, UniProt O33471); assay: Linkage relationships of ligand binding and redox equilibria of NSMOA; set-up: species or system Pseudomonas putida S12
[2] = target: apo NSMOA (Pseudomonas sp, UniProt O50214); assay: biochemical
[3] = target: NSMOA (Pseudomonas sp, UniProt O50214); assay: Stopped-flow fluorescence kinetics of oxidized FAD binding to NSMOA; set-up: species or system Pseudomonas putida S12; conditions: 280 μM NSMOA mixed with 50 μM FAD, 25°C, four-exponential fit
[4] = cited from earlier work
[5] = test system: P. putida S12; conditions: growth of P. putida S12; cited from earlier work
[6] = calculated from linkage relationships

Sequence of NSMOA (Pseudomonas sp, UniProt O50214) (O50214 whole entry): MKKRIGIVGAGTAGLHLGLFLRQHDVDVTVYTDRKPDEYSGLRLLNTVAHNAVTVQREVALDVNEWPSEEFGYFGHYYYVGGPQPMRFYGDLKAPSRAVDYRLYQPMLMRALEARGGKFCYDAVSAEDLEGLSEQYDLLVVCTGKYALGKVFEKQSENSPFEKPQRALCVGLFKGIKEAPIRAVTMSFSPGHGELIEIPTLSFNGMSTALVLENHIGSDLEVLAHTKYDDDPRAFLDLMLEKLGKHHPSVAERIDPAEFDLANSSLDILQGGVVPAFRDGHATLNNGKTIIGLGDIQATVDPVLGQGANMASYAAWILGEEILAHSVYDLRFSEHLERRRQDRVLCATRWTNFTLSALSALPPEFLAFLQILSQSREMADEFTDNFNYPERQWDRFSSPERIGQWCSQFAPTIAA
Sequence of apo NSMOA (O50214 whole entry): as above

## c1ccccc1 [benzene, reference compound]
[1]; benzene affinity for reduced-FAD complex of NSMOA relative to comparison state
  positive cooperative interaction of benzene and reduced FAD binding (Kd1/Kd7): ~2 fold
[1]; relative to oxidized FAD cooperativity
  decrease in cooperativity of substrate-analog and reduced-FAD binding equilibria: 30 fold
[2]
  Kd: 4.2 ± 0.37 mM

## Cc1cc2nc3c(=O)[nH]c(=O)nc-3n(C[C@H](O)[C@H](O)[C@H](O)COP(=O)(O)OP(=O)(O)OC[C@H]3O[C@@H](n4cnc5c(N)ncnc54)[C@H](O)[C@@H]3O)c2cc1C [oxidized FAD, flavin adenine dinucleotide]
[1]; [6]
  equilibrium midpoint potential of FAD bound to benzene-bound NSMOA: -142 mV
  equilibrium midpoint potential of FAD bound to benzene-free NSMOA: -97 mV
[3]
  rate constant k1: 265 s⁻¹
  rate constant k2: 120 s⁻¹
  rate constant k3: 21 s⁻¹
  rate constant k4: 0.34 s⁻¹
[4]
  Em1, solution potential of free FAD: -212 mV

## C=Cc1ccccc1 [styrene]
[5]
  styrene concentration at which growth is inhibited: greater than 300 μM
